In test [1] the target is T1, Free fatty acid receptor 1 (Homo sapiens, UniProt O14842). Nature of the test: Agonist activity at recombinant human GPR40 expressed in HEK293 cells assessed as increase in IP1 accumulation measured after 60 mins in presence of 100% human serum by HTRF assay. It counts as functional, cell-based.
The target in test [2] is T1, Free fatty acid receptor 1. The experiment in a line: Agonist activity at recombinant human GPR40 expressed in HEK293 cells assessed as increase in IP1 accumulation measured after 60 mins by HTRF assay relative to AM-1638. It is filed as functional, cell-based.
Test [3] has as its target T1, Free fatty acid receptor 1. The experiment in a line: Agonist activity at recombinant human GPR40 expressed in HEK293 cells assessed as increase in IP1 accumulation measured after 60 mins in presence of 100% human serum by HTRF assay relative to AM-1638. It counts as functional, cell-based.
Test [4] addresses T1, Free fatty acid receptor 1. The experiment in a line: Agonist activity at recombinant human GPR40 expressed in HEK293 cells assessed as increase in IP1 accumulation measured after 60 mins by HTRF assay. It is filed as functional, cell-based.
For the next test, the system named is Rattus norvegicus. Nature of the test: Antidiabetic activity in Sprague-Dawley rat assessed as inhibition of blood glucose AUC at 3 mg/kg, po treated prior to dextrose challenge and measured after 20 to 60 mins by IPGTT relative to control. It counts as functional. The following applies: for inhibition in vivo at 3 mg/kg: Rattus norvegicus, Sprague-Dawley, po.

Some results are limits rather than exact numbers.

T1 sequence (O14842 whole entry): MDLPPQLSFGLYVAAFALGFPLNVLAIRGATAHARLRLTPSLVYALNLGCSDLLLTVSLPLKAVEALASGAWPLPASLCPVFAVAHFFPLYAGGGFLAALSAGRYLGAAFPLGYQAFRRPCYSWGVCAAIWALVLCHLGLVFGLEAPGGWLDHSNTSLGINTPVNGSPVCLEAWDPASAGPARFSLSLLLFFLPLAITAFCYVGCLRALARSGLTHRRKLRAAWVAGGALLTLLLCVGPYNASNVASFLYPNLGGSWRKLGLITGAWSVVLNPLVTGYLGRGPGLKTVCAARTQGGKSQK

On to `COc1cc(-c2ccc(C3CCc4ccc([C@@H](CC(=O)O)C5CC5)cc4O3)cc2)c(F)cn1` (some centres not stated), for which, in test [1], the EC50 amounted to 1210 nM. Also, the max activation in test [2] came to 460%; in test [3], 224%.

For the compound `COc1ccc(F)c(-c2ccc(C3CCc4ccc([C@@H](CC(=O)O)C5CC5)cc4O3)cc2)c1` (mixture of isomers), the EC50 was 7 nM in test [4] and 1230 nM in test [1]. The max activation was found to be 359% in test [2] and 188% in test [3].

`O=C(O)C[C@H](c1ccc2c(c1)OC(c1ccc(-c3cccc(OC(F)(F)F)c3)cc1)CC2)C1CC1` (mixture of isomers): the concentration giving a half-maximal response (EC50) in test [4] is 934 nM; in test [1], 6430 nM. The figures for the max activation in test [2] and in test [3] were 385% and 73%, respectively.

For `COc1cc(-c2ccc(C3CCc4ccc([C@@H](CC(=O)O)C5CC5)cc4O3)cc2)ccn1` (mixture of isomers), in test [1], the EC50 is 2560 nM. For the same compound, the max activation in test [2] stood at 401%; in test [3], 229%.

In the case of `O=C(O)C[C@H](c1ccc2c(c1)OC(c1ccc(-c3cccc(O)c3)cc1)CC2)C1CC1` (mixture of isomers), the EC50 in test [4] came to 391 nM; in test [1], 4580 nM. Moreover, the max activation in test [2] is 422%; in test [3], 231%.

For the compound `CSc1cccc(-c2ccc(C3CCc4ccc([C@@H](CC(=O)O)C5CC5)cc4O3)cc2)c1` (mixture of isomers), the EC50 in test [1] is 5170 nM. Moreover, the results for the max activation in test [2] and in test [3] were 500% and 144%, respectively.

Take `COc1cccc(-c2ccc(C3CCc4ccc([C@@H](CC(=O)O)C5CC5)cc4O3)cc2)n1` (mixture of isomers): the EC50 in test [1] was more than 10000 nM. The max activation in test [2] came out at 535%; in test [3] it was 2.4%.

On to `O=C(O)C[C@H](c1ccc2c(c1)OC(c1ccc(-c3ccccc3)cc1)CC2)C1CC1` (single isomer, unassigned), for which the EC50 in test [4] was 133 nM; in test [1], 5440 nM. Moreover, the max activation in test [2] was 452%; in test [3], 57%.

In the case of `COc1cccc(-c2ccc(C3CCc4ccc([C@@H](CC(=O)O)C5CC5)cc4O3)cc2)c1` (single isomer, unassigned), the EC50 in test [4] came to 23 nM; in test [1], 4030 nM. Also, the figures for the max activation in test [2] and in test [3] were 394% and 223%, respectively.

For `COc1ccc(F)c(-c2ccc(C3CCc4ccc([C@H](C5CC5)[C@H](C)C(=O)O)cc4O3)cc2)c1` (stereo in doubt; 15) [listing 1 of 2 here], the concentration giving a half-maximal response (EC50) in test [4] was 2.6 nM; in test [1], 127 nM. The inhibition in vivo at 3 mg/kg in the test on Rattus norvegicus is 102%.

Turning to `COc1ccc(F)c(-c2ccc(C3CCc4ccc([C@H](C5CC5)[C@H](C)C(=O)O)cc4O3)cc2)c1` (stereo in doubt; 15) [listing 2 of 2 here], the max activation in test [2] and in test [3] was more than 179% throughout.

Regarding `COc1ccc(F)c(-c2ccc(C3CCc4ccc([C@H](C5CC5)[C@H](C)C(=O)O)cc4O3)nc2)c1` (stereo in doubt; 17) [listing 1 of 2 here], the inhibition in vivo at 3 mg/kg in the test on Rattus norvegicus turned out to be 100%.

In the case of `COc1ccc(F)c(-c2ccc(C3CCc4ccc([C@H](C5CC5)[C@H](C)C(=O)O)cc4O3)nc2)c1` (stereo in doubt; 17) [listing 2 of 2 here], the max activation in test [2] and in test [3] was more than 179% in each case.

`COc1ccc(F)c(-c2ccc(C3CCc4ccc([C@H](C5CC5)[C@H](C)C(=O)O)cc4O3)cn2)c1` (stereo in doubt; 18): the max activation in test [2] and in test [3] was more than 179% in each case.

Turning to `COc1ccc(F)c(-c2ccc(C3CCc4ccc([C@H](C5CC5)[C@H](C)C(=O)O)cc4O3)cn2)c1` (stereo in doubt; 19) [listing 1 of 2 here], the EC50 in test [4] stood at 13 nM; in test [1] it was 2470 nM.

With `COc1ccc(F)c(-c2ccc(C3CCc4ccc([C@H](C5CC5)[C@H](C)C(=O)O)cc4O3)cn2)c1` (stereo in doubt; 19) [listing 2 of 2 here], the max activation in test [2] and in test [3] was more than 179% each time.

As for `COc1cc(-c2ccc(C3CCc4ccc([C@H](C5CC5)[C@H](C)C(=O)O)cc4O3)cc2)c(F)cn1` (stereo in doubt; 20), the max activation in test [2] and in test [3] was more than 179% each time.

For the compound `COc1cc(-c2ccc(C3CCc4ccc([C@H](C5CC5)[C@H](C)C(=O)[O-])cc4O3)cc2)c(F)cn1.[Na+]` (stereo in doubt; 21), the EC50 in test [4] is less than 0.2 nM; in test [1], 105 nM. The “inhibition (INH)” value in the test on Rattus norvegicus is 88%.

Regarding `COc1cc(-c2ccc(C3CCc4ccc([C@H](C5CC5)[C@H](C)C(=O)O)cc4O3)cc2)c(F)cn1` (stereo in doubt; 21), the max activation in test [2] and in test [3] was more than 179% throughout.

Take `COc1cc(-c2ccc(C3CCc4ccc([C@H](C5CC5)[C@H](C)C(=O)O)cc4O3)cc2)ccn1` (stereo in doubt; 22): the max activation in test [2] and in test [3] was more than 179% throughout.

`COc1cc(-c2ccc(C3CCc4ccc([C@H](C5CC5)[C@H](C)C(=O)[O-])cc4O3)cc2)ccn1.[Na+]` (stereo in doubt; 23): the EC50 in test [1] was found to be 521 nM. In addition, the “inhibition (INH)” value with Rattus norvegicus was determined as 7%.

As to `COc1cc(-c2ccc(C3CCc4ccc([C@H](C5CC5)[C@H](C)C(=O)O)cc4O3)cc2)ccn1` (stereo in doubt; 23), the max activation in test [2] and in test [3] was more than 179% throughout.

Consider `COc1cc(-c2ccc(C3CCc4ccc([C@H](C5CC5)[C@H](C)C(=O)O)cc4O3)c(F)c2)c(F)cn1` (stereo in doubt; 26), for which the max activation in test [2] and in test [3] was more than 179% throughout.

As to `COc1cc(-c2ccc(C3CCc4ccc([C@H](C5CC5)[C@H](C)C(=O)[O-])cc4O3)c(F)c2)c(F)cn1.[Na+]` (stereo in doubt; 27), in test [1], the EC50 was determined as 328 nM. In the test with Rattus norvegicus, the “inhibition (INH)” value amounted to 38%.

Take `COc1cc(-c2ccc(C3CCc4ccc([C@H](C5CC5)[C@H](C)C(=O)O)cc4O3)c(F)c2)c(F)cn1` (stereo in doubt; 27): the max activation in test [2] and in test [3] was more than 179% each time.

`COc1cc(-c2ccc(C3CCc4ccc([C@H](C5CC5)[C@H](C)C(=O)O)cc4O3)nc2)c(F)cn1` (stereo in doubt; 28): the max activation in test [2] and in test [3] was more than 179% throughout.

On to `COc1cc(-c2cnc(C3CCc4ccc([C@H](C5CC5)[C@H](C)C(=O)O)cc4O3)c(F)c2)c(F)cn1` (stereo in doubt; 30), for which the max activation in test [2] and in test [3] was more than 179% in each case.

Turning to `COc1cc(-c2cnc(C3CCc4ccc([C@H](C5CC5)[C@H](C)C(=O)O)cc4O3)c(F)c2)c(F)cn1` (stereo in doubt; 31) [listing 1 of 2 here], the EC50 in test [1] was found to be 757 nM.

Regarding `COc1cc(-c2cnc(C3CCc4ccc([C@H](C5CC5)[C@H](C)C(=O)O)cc4O3)c(F)c2)c(F)cn1` (stereo in doubt; 31) [listing 2 of 2 here], the max activation in test [2] and in test [3] was more than 179% throughout.

Take `COc1cc(-c2ccc(C3CCc4ccc([C@H](C5CC5)[C@H](C)C(=O)O)cc4O3)nc2)ccn1` (stereo in doubt; 32): the max activation in test [2] and in test [3] was more than 179% throughout.

Take `COc1cc(-c2ccc(C3CCc4ccc([C@H](C5CC5)[C@H](C)C(=O)O)cc4O3)nc2)ccn1` (stereo in doubt; 33) [listing 1 of 2 here]: the concentration for a half-maximal effect (EC50) in test [1] was found to be 462 nM.

Consider `COc1cc(-c2ccc(C3CCc4ccc([C@H](C5CC5)[C@H](C)C(=O)O)cc4O3)nc2)ccn1` (stereo in doubt; 33) [listing 2 of 2 here], for which the max activation in test [2] and in test [3] was more than 179% each time.
